Results: patent publication US8044089B2, “3-3-di-substituted-oxindoles as inhibitors of translation initiation” (President and Fellows of Harvard College, priority 2004, dated 2011)
Entries after “also recorded” stand apart in the source; their conditions may differ. Read-outs that look alike come from different tables or passages of the source.

Columns and labels:
[1] = system: squamous cell carcinoma (KLN) tumor; test: Squamous cell carcinoma (KLN) tumor mass in mice; assay type: in vivo; details: DBA/2J mice, oral, 320 mg/kg/day, six weeks
[2] = system: intracellular Ca^2+ stores; test: Ca2+ release from intracellular stores (FURA-2AM loaded cells); assay type: cell-based; parameters: key to Ca^2+ (Ca^2+ release from intracellular stores): a “+” denotes release; a “+/−” denotes inconclusive
Procedure, shortened: (§1)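 Ca2+ release scored in FURA-2AM loaded cells as "+" (release) or "+/−" (inconclusive); some compounds also tested with ER-targeted FRET Ca2+ sensors. Ca2+-depleting compounds were then tested for eIF2α phosphorylation by Western blot with phospho-specific anti-eIF2α antibody.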

[3] = system: ternary complex in transgenic KLN cells; test: Ternary complex assay; assay type: cell-based
Experimental: FIGS. 3A-3C depict compound 1181 activity. (A) depicts the drug induced phosphorylation of eIF2α protein in control (lane 1), positive control (lane 2) and 1181 (lane 3) measured using Western blot analysis.
(§2) Ternary complex assay was 8-fold over DMSO at 20 μM, and cell growth was inhibited at <1 μM. The plasma levels for this in mice were estimated using liquid chromatography and mass spectrometry (LC-MS). Compound 1430 was orally administered at 160 mg/kg, 240 mg/kg, and 320 mg/kg to DBA/2J mice and the plasma concentration was measured at three time points, one hour, three hours, and six hours, and is set forth in Table 15. The plasma was isolated from the mice by heart-lung puncture and the samples were processed and analyzed by LC-MS. The concentrations at each time and dose are in nmoles/mL of plasma (n.d.=not detected; X=not determined).

[4] = system: endoplasmic reticulum (ER) Ca^2+; test: Depletion of endoplasmic reticulum Ca2+ (ER-targeted cameleon proteins, FRET); assay type: cell-based; details: ER-targeted Ca^2+-sensitive proteins
Experimental: FIGS. 2A-2B depict compound 1181 activity. […] These proteins emit light and the Ca^2+ content is measured by fluorescent resonance energy transfer (FRET).
Without intending to be bound by theory, the mechanism of action of translation initiation inhibitors is set forth in FIG. 1, and includes the depletion (complete or partial depletion) of intracellular calcium (Ca^2+) stores and phosphorylation of eIF2α. Compounds synthesized using the approaches described herein were screened for their ability to partially deplete intracellular Ca^2+ stores using FURA-2AM loaded cells (Benzaquen et al. (1995) Nature Medicine, 1:534, incorporated herein by reference in its entirety for all purposes). A limited subset of compounds were further screened for their ability to deplete endoplasmic reticulum (ER) Ca^2+. The Ca^2+ content of the ER was monitored using ER-targeted, Ca^2+ sensitive, recombinant proteins. These recombinant proteins emitted light by fluorescent resonance energy transfer (FRET) as a function of the Ca^2+ content of the medium. […] Compounds that depleted Ca^2+ were further evaluated for their ability to phosphorylate eIF2α. eIF2α phosphorylation was measured by Western blot analysis using the phospho-specific anti-eIF2α antibody, as previously described (Aktas et al. (1998) Proc. Natl. Acad. Sci. USA, 95:8280, incorporated herein by reference in its entirety for all purposes).

eIF2α = eIF2α phosphorylation measured by Western blot; assay type: cell-based; details: for eIF2α-P (phosphorylation of eIF2α measured by Western blot): unit or reference not given
Procedure, shortened: as §1

A549 lung cancer cells = test: SRB growth inhibition of A549 lung cancer cells; assay type: cell-based, human
[5] = Plasma levels after oral administration (LC-MS); assay type: in vivo; details: mouse, DBA/2J mice
Experimental: as §2

[6] = Homo sapiens, A549 lung cancer cells, unit inferred, read-out: SRB (IC50 for growth inhibition of A549 lung cancer cells)
[7] = A549 lung cancer cells, unit inferred, read-out: SRB (IC50 for growth inhibition of A549 lung cancer cells)

SMILES | Ca^2+ (Ca^2+ release from intracellular stores) [2] | eIF2α-P (phosphorylation of eIF2α measured by Western blot) (eIF2α) | IC50 (A549 lung cancer cells; [7]) [µM] | also measured
CC(C)(C)c1ccc(O)c(C2(c3ccccc3)C(=O)Nc3ccccc32)c1 (centres unmarked) [Compound 1181, 3-(5-tert-butyl-2-hydroxy-phenyl)-3-phenyl-1,3-dihydro-indol-2-one] | + | 5 | – | squamous cell carcinoma (KLN) tumor mass [1]: decreased squamous cell carcinoma tumor mass in mice; also recorded: decrease in squamous cell carcinoma (KLN) tumor mass; Ca^2+ release / depletion of intracellular Ca^2+ (in words) [2]: calcium (Ca^2+) release in a dose dependent manner; depletion of ternary complex (in words) ([3]; transgenic KLN cells): depletion of ternary complex; depletion of ER Ca^2+ (in words) [4]: depleted ER-Ca^2+; also recorded: depletion of endoplasmic reticulum (ER) Ca^2+; eIF2α phosphorylation (in words) (eIF2α): phosphorylated eIF2α; growth inhibition of cancer cells (in words) (A549 lung cancer cells; A549): inhibited growth of a cancer cell line (A549); IC50 (A549 lung cancer cells; [6]): 3 µM
O=C1Nc2ccc([N+](=O)[O-])cc2C1(c1ccccc1)c1ccccc1 [Compound 1265] | +/− | 2.35 | 14 | –
O=C1Nc2ccc(F)cc2C1(c1ccccc1)c1ccccc1 [Compound 1350] | + | 1.16 | 9 | –
CCCCCCCCCc1ccc(O)c(C2(c3ccccc3)C(=O)Nc3ccccc32)c1 (centres unmarked) [Compound 1280] | +/− | 3.89 | 3 | –
O=C1Nc2ccccc2C1(c1ccccc1)c1ccccc1 [Compound 1194] | + | 2.5 | 13 | –
CC(C)(C)c1ccc(O)c(C2(Cc3ccccc3)C(=O)Nc3ccccc32)c1 (centres unmarked) [Compound 1275] | +/− | 1.01 | 13 | –
CCCCCc1ccc(O)c(C2(c3ccccc3)C(=O)Nc3ccccc32)c1 (centres unmarked) [Compound 1286] | + | 8.60 | 3 | –
CC(C)(C)c1ccc(O)c(C2(c3cccc(F)c3)C(=O)Nc3ccccc32)c1 (centres unmarked) [Compound 1223] | + | 4.41 | 7 | –
CCc1cccc2c1C(c1ccccc1)(c1cc(C(C)(C)C)ccc1O)C(=O)N2 (centres unmarked) [Compound 1257] | + | 1.11 | 10 | –
CC(C)(C)c1ccc(C2(c3ccccc3)C(=O)Nc3ccccc32)cc1 (centres unmarked) [Compound 1349] | + | 1.27 | 8 | –
Cc1cc(C2(c3ccccc3)C(=O)Nc3ccccc32)c(NS(=O)(=O)c2ccc(C(C)(C)C)cc2)cc1O (centres unmarked) [Compound 1430, 4-tert-butyl-N-[5-hydroxy-4-methyl-2-(2-oxo-3-phenyl-2,3-dihydro-1H-indol-3-yl)-phenyl]-benzenesulfonamide] | + | 4.8 | – | concentration at 1 h ([5]; oral 160 mg/kg): 5.7 µM; concentration at 3 h ([5]; oral 160 mg/kg): 3.8 µM; concentration at 1 h ([5]; oral 240 mg/kg): 6.8 µM; concentration at 3 h ([5]; oral 240 mg/kg): 4 µM; concentration at 1 h ([5]; oral 320 mg/kg): 14 µM; concentration at 3 h ([5]; oral 320 mg/kg): 3.8 µM; concentration at 6 h ([5]; oral 320 mg/kg, 6 hours): 2800 nM; Ternary complex assay over DMSO ([3]; at 20 μM, over DMSO): 8 fold; increase in eIF2α phosphorylation over DMSO (eIF2α; at 5 μM, over DMSO): 5 fold; IC50 (A549 lung cancer cells; Homo sapiens, A549, read-out: cell growth was inhibited at): < 1 µM; IC50 (A549 lung cancer cells; [6]): 0.9 µM
CC(C)CC(NC(=O)COc1ccc(C(C)(C)C)cc1C1(c2ccccc2)C(=O)Nc2ccccc21)C(=O)NC(CO)Cc1ccccc1 (centres unmarked) [Compound 1400] | + | 3.70 | 3 | –
CCc1ccc2c(c1)NC(=O)C2(c1ccccc1)c1ccccc1 [Compound 1271] | + | 1.58 | 4 | –
COC(=O)c1cccc2c1NC(=O)C2(c1ccccc1)c1ccccc1 [Compound 1354] | + | 1.74 | > 20 | –
Cc1cc(C2(c3ccccc3)C(=O)Nc3ccccc32)c(NS(=O)(=O)c2ccc([N+](=O)[O-])cc2)cc1O (centres unmarked) [Compound 1589] | + | 1 | 5 | –
O=C1Nc2cccc(Br)c2C1(c1ccccc1)c1ccccc1 [Compound 1272] | + | 1.63 | 8 | eIF2α phosphorylation (in words) (eIF2α): none of the compounds exhibited an increase in eIF2α phosphorylation relative to compound 1392
CC(C)(C)c1ccc(O)c(C2(c3ccccc3)C(=O)Nc3cc(Br)ccc32)c1 (centres unmarked) [Compound 1235] | + | 3.2 | 4 | –
O=C1Nc2ccc(Cl)cc2C1(c1ccccc1)c1ccccc1 [Compound 1206] | + | 1.58 | 9 | –
CC(C)(C)c1ccc(OCC(=O)O)c(C2(c3ccccc3)C(=O)Nc3ccccc32)c1 (centres unmarked) [Compound 1397] | + | 1.46 | 8 | –
O=C1Nc2ccccc2C1(c1ccccc1)c1cc(C2CCCCC2)ccc1O (centres unmarked) [Compound 1290] | +/− | 8.60 | 3 | –
Nc1ccc(CCNC(=O)c2ccc(Cl)c3c2NC(=O)C3(c2ccccc2)c2ccccc2)cc1 [Compound 1355] | +/− | 3.80 | 5 | –
Cc1cccc(C2(c3cc(C(C)(C)C)ccc3O)C(=O)Nc3ccccc32)c1 (centres unmarked) [Compound 1224] | + | 1.74 | 9 | –
O=C1Nc2ccc(Br)cc2C1(c1ccccc1)c1ccccc1 [Compound 1205] | + | 2.05 | 9 | eIF2α phosphorylation (in words) (eIF2α): none of the compounds exhibited an increase in eIF2α phosphorylation relative to compound 1392
O=C1Nc2c(Br)cccc2C1(c1ccccc1)c1ccccc1 [Compound 1207] | +/− | 2.01 | 3 | Ca^2+ release / depletion of intracellular Ca^2+ (in words) [2]: abrogated Ca^2+ depletion activity; eIF2α phosphorylation (in words) (eIF2α): none of the compounds exhibited an increase in eIF2α phosphorylation relative to compound 1392
